Results from patent publication US6469037B2, “Prophylactic or therapeutic drug for renal diseases” (Takeda Chemical Industries, Ltd., priority 1993, dated 2002).

How the values were obtained:
in vivo = details: both sexes, po
Procedure: Acute Toxicity Test Compound 1: (±)-1-(cyclohexyloxycarbonyloxy)ethyl 2-ethoxy-1-[[2′-(1H-tetrazole-5-yl)biphenyl-4-yl]methyl]-1H-benzimidazole-7-carboxylate The LD50 of compound 1 is 2,000 mg/kg or more for 4-week-old Jcl:ICR mice (males and females) and for 5-week-old Jcl:Wister rats (males and females) via single oral administration.

Wistar fatty rats = experiment: Antiproteinuric action in rats with non-insulin-dependent diabetes (Wistar fatty rats); type: in vivo
Source text: Antiproteinuric action in rats with non-insulin-dependent (NIDD) diabetes (Wistar fatty rats) (Ikeda, H., Shino, A., Matsuo, T., Iwatsuka, H., and Suzuoki, Z.: Diabetes, 30, 1045 (1981) or Kava, R. A., West, D. B., Lukasik, V. A., and Greenwood, M. R. C: Diabetes, 38,159 (1989) Compound 1: (±)-1-(cyclohexyloxycarbonyloxy)ethyl 2-ethoxy-1-[[2′-(1H-tetrazole-5-yl)biphenyl-4-yl]methyl]-1H-benzimidazole-7-carboxylate Method: On the basis of blood glucose level and urinary protein content, 11-week-old Wistar fatty rats were divided into two groups (vehicle-treated rats and rats treated with 1 mg/kg/day, p.o. of compound 1). Non-diabetic control rats (lean rats) were also used. Compound 1 was suspended in gum-arabic and the suspension was orally administered once a day for ten weeks. At the 2nd, 4th, 6th, 8th and 10th week of the treatment, 24 hour urine was collected. The urine was centrifuged at 3,000 rpm and a portion of the supernatant was desalted on a column (Pharmacia PD10). Urinary total protein content and albumin content were determined by Lowry and ELISA methods, respectively. Results: Table 2 summarizes the results. Urinary total protein content increased in vehicle-treated rats to about three times of the value in lean rats. This increase, however, was reduced to 1.2-1.5 times by the-treatment with compound 1. […] This increase, however, was reduced to 20-30 times by the treatment with compound 1. […] In non-insulin-dependent diabetic models, compound 1 is expected to be effective against diabetic nephropathy by decreasing the urinary protein without affecting the blood glucose level.

[1] = test system: rats with subtotally (5/6) nephrectomy; experiment: Antiproteinuric action in rats with subtotally (5/6) nephrectomy (focal glomerulosclerosis model); type: in vivo
Source text: Antiproteinuric action in rats with subtotally (5/6) nephrectomy (focal glomerulorsclerosis model; Meyer, T. W. and Renake, H. G.: Am. J. Physiol. 254, F856 (1988) or Yoshioka, T., Shiraga, H., Yoshida, Y., Fogo. A., Glick, A. D.: J. Clin. Invest. 82, 1614 (1988)) Compound 1: (±)-1-(cyclohexyloxycarbonyloxy)ethyl 2-ethoxy-1-[[2′-(1H-tetrazole-5-yl)biphenyl-4-yl]methyl]-1H-benzmidazole-7-carboxylate Method: Five-week-old male rats were anesthetized by intraperitoneal injection of pentobarbital sodium and ⅔ of the right kidney was removed. One week later, the entire left kidney was removed under similar anesthesia. After two-week breeding, 24-hour urine was collected and the total protein content and albumin content in the urine were determined by the use of A/G-B test (Wako Pure Chemistry Co., Ltd.). On the basis of urinary protein and blood pressure (BP), the rats were divided into two groups (vehicle-treated rats and rats treated with 1 mg/kg/day, p.o. of compound 1). Rats undergoing nephrectomy of the left kidney alone were also used as sham operated rats. Compound 1 was suspended in gum-arabic and the suspension was orally administered once a day for eight weeks. At the 2nd, 4th, 6th and 8th week of the treatment, 24-hour urine was collected. Results: Table 1 summarizes the results. Urinary total protein and albumin began to markedly increase in vehicle-treated rats two weeks after surgery. […] Since compound 1 suppresses aggravation of renal impairment, its efficacy in glomerulonephritis or diabetic nephropathy is expected.

[2] = age 11 weeks (start of treatment, baseline), Wistar fatty rats, n = 6, mean ± standard error
[3] = age 13 weeks, 1 mg/kg/day p.o., mean ± standard error
[4] = age 15 weeks, 1 mg/kg/day p.o., mean ± standard error
[5] = age 17 weeks, 1 mg/kg/day p.o., mean ± standard error
[6] = age 19 weeks, 1 mg/kg/day p.o., mean ± standard error
[7] = age 21 weeks, 1 mg/kg/day p.o., mean ± standard error
[8] = 2 weeks after the first dose, 1 mg/kg/day p.o., mean ± standard error
[9] = 4 weeks after the first dose, 1 mg/kg/day p.o., mean ± standard error
[10] = 6 weeks after the first dose, 1 mg/kg/day p.o., mean ± standard error
[11] = 8 weeks after the first dose, 1 mg/kg/day p.o., mean ± standard error
[12] = Preadministration (baseline), 5/6 nephrectomized rats, n = 9, mean ± standard error

CCOc1nc2cccc(C(=O)OC(C)OC(=O)OC3CCCCC3)c2n1Cc1ccc(-c2ccccc2-c2nnn[nH]2)cc1 (racemic) [Compound 1, (±)-1-(cyclohexyloxycarbonyloxy)ethyl 2-ethoxy-1-[[2′-(1H-tetrazole-5-yl)biphenyl-4-yl]methyl]-1H-benzimidazole-7-carboxylate]
LD50 (in vivo; Jcl:ICR, mouse): ≥ 2000 mg/kg
LD50 (in vivo; Jcl:Wister, rat): ≥ 2000 mg/kg
Effect on blood glucose level (Wistar fatty rats; Wistar fatty rats, 1 mg/kg/day p.o.): did not affect blood glucose level
Urinary albumin content relative to the value in lean rats (Wistar fatty rats; Wistar fatty rats, 1 mg/kg/day p.o., vehicle-treated about 100 times): 20-30 times
Urinary total protein content relative to the value in lean rats (Wistar fatty rats; Wistar fatty rats, 1 mg/kg/day p.o., vehicle-treated about three times): 1.2-1.5 times
Urinary albumin (Wistar fatty rats; [2]): 6.5 ± 0.4 mg/24 hr
Urinary total protein (Wistar fatty rats; [2]): 101 ± 6 mg/24 hr
Urinary albumin (Wistar fatty rats; [3]): 11.2 ± 3.9 mg/24 hr
Urinary total protein (Wistar fatty rats; [3]): 69 ± 11 mg/24 hr
Urinary albumin (Wistar fatty rats; [4]): 14.8 ± 6.1 mg/24 hr
Urinary total protein (Wistar fatty rats; [4]): 91 ± 12 mg/24 hr
Urinary albumin (Wistar fatty rats; [5]): 21.8 ± 8.2 mg/24 hr
Urinary total protein (Wistar fatty rats; [5]): 97 ± 11 mg/24 hr
Urinary albumin (Wistar fatty rats; [6]): 10.7 ± 3.9 mg/24 hr
Urinary total protein (Wistar fatty rats; [6]): 79 ± 10 mg/24 hr
Urinary albumin (Wistar fatty rats; [7]): 15.4 ± 3.7 mg/24 hr
Urinary total protein (Wistar fatty rats; [7]): 74 ± 13 mg/24 hr
Urinary albumin [1, 8]: 6.3 ± 2.9 mg/100 g/24 hr
Urinary total protein [1, 8]: 30.9 ± 5.2 mg/100 g/24 hr
Urinary albumin [1, 9]: 6.8 ± 3.4 mg/100 g/24 hr
Urinary total protein [1, 9]: 27.7 ± 4.0 mg/100 g/24 hr
Urinary total protein and albumin (course versus vehicle-treated rats) ([1]; 5/6 nephrectomized rats, 1 mg/kg/day p.o. for eight weeks): these parameters did not increase
Urinary albumin [1, 10]: 7.4 ± 4.0 mg/100 g/24 hr
Urinary total protein [1, 10]: 17.6 ± 5.6 mg/100 g/24 hr
Urinary albumin [1, 11]: 5.6 ± 2.7 mg/100 g/24 hr
Urinary total protein [1, 11]: 24.4 ± 2.7 mg/100 g/24 hr
Urinary albumin [1, 12]: 7.3 ± 2.3 mg/100 g/24 hr
Urinary total protein [1, 12]: 32.8 ± 5.4 mg/100 g/24 hr
